{
  "source": "ChEMBL document CHEMBL1201862",
  "about": "“PubChem BioAssay data set” (2004)",
  "key": {"SUMO-activating enzyme [1]": {"biological_target": "T1, SUMO-activating enzyme (Homo sapiens, UniProt Q9UBT2)", "T1 sequence (Q9UBE0 whole entry)": "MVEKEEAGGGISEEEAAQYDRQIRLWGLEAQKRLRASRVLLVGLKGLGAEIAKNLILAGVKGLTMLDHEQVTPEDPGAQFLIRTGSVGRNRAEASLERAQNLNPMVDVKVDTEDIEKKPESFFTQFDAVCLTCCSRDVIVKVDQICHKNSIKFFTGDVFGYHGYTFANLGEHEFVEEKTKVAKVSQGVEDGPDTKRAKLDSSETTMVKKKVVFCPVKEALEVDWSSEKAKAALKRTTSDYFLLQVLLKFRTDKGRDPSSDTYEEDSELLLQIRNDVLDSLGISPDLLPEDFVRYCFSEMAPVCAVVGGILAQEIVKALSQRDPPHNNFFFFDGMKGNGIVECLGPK", "T1 sequence (Q9UBT2 whole entry)": "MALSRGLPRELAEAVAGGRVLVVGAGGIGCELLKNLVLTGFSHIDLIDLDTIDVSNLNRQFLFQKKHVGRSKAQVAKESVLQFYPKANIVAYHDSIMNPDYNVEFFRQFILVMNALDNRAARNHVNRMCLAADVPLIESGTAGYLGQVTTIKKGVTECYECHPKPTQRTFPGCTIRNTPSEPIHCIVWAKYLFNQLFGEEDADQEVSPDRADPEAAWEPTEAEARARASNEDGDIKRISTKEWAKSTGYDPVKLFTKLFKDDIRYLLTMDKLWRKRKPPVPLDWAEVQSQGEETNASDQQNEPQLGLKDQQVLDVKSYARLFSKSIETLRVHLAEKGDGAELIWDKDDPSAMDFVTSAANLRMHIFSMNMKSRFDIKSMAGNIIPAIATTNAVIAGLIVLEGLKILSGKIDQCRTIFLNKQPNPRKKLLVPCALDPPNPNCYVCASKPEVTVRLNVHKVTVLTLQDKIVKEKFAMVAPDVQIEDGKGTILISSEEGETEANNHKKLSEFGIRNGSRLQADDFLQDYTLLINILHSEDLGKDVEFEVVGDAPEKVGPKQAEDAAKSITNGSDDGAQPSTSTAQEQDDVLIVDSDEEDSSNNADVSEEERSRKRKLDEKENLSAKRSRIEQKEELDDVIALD", "experiment": "inhibitors of in vitro SUMOylation cascade, primary screen, biochemical, HTRF, uHTS (AID 2006)", "assay_type": "protein-complex assay"}, "Genome polyprotein": {"biological_target": "Genome polyprotein (dengue virus type 2, UniProt P29990)", "experiment": "Dengue-2 NS5 methyltransferase inhibitors, primary screen, biochemical, confirmation dose response (AID 588689)", "assay_type": "functional"}, "[2]": {"biological_target": "T2, Zinc finger protein mex-5 (Caenorhabditis elegans, UniProt Q9XUB2)", "T2 sequence (Q9XUB2 whole entry)": "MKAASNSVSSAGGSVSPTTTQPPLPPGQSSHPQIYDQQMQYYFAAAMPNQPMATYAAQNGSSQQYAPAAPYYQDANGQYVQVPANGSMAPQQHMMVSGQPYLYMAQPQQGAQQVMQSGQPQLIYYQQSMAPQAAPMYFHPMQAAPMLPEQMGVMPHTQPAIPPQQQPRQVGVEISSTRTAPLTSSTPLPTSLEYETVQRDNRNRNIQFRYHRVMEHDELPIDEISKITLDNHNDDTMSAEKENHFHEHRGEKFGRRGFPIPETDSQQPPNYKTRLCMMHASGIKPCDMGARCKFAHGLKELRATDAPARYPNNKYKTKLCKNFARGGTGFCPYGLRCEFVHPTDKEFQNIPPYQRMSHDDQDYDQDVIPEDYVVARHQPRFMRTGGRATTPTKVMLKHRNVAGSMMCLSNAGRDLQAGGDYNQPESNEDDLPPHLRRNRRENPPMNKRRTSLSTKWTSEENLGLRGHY", "experiment": "MEX-5/TCR-2 RNA interaction inhibitors, dose response, biochemical, C. elegans, fluorescence polarization (AID 1960)"}, "[3]": {"biological_target": "DNA (cytosine-5)-methyltransferase 1 (Homo sapiens, UniProt P26358)", "sequence (P26358 whole entry)": "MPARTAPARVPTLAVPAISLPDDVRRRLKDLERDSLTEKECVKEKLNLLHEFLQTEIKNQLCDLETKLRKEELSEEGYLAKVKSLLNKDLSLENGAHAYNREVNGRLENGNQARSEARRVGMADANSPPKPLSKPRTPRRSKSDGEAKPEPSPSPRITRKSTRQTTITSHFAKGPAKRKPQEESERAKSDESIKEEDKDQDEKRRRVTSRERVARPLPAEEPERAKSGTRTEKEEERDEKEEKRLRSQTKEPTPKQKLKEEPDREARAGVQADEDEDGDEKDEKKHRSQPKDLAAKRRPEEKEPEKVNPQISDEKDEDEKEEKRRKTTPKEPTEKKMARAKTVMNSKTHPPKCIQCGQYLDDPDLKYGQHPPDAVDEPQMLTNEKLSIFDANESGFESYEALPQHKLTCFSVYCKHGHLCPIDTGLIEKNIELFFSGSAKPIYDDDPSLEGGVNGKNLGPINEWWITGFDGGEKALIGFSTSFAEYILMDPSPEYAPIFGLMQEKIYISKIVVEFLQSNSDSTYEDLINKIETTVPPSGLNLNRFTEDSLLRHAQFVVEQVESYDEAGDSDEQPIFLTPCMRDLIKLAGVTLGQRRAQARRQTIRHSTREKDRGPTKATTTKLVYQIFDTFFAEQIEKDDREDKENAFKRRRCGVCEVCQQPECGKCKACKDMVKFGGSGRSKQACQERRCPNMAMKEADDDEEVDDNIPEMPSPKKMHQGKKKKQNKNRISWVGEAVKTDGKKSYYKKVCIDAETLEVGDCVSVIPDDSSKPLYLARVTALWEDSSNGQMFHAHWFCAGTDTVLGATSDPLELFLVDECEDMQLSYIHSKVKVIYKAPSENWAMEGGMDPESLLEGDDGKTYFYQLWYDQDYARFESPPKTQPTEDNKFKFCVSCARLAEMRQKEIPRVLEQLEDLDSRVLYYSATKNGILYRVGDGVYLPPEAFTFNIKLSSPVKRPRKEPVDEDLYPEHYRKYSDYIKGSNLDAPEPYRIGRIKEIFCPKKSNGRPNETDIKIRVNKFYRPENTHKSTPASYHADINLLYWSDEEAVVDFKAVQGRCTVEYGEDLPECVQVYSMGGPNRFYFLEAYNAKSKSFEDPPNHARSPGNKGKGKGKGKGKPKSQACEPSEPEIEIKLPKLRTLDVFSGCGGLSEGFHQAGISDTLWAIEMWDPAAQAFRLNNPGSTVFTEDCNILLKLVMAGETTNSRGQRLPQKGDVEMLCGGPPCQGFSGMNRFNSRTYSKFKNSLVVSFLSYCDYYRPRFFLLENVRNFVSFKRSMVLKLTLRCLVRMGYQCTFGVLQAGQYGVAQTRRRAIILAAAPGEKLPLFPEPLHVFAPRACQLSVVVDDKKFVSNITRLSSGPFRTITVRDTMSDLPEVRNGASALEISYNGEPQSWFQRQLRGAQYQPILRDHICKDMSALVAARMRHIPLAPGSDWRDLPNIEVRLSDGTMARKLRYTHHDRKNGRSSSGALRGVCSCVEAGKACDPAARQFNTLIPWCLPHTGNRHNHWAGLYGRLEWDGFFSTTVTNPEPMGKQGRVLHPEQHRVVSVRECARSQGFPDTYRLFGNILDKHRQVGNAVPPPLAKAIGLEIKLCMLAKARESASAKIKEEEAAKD", "experiment": "DNMT1 methyltransferase inhibitors, confirmation, biochemical, fluorescent molecular beacon (AID 602386)", "assay_type": "functional"}, "Leucine aminopeptidase": {"biological_target": "T3, Leucine aminopeptidase (Plasmodium falciparum 3D7, UniProt Q8IL11)", "T3 sequence (Q8IL11 whole entry)": "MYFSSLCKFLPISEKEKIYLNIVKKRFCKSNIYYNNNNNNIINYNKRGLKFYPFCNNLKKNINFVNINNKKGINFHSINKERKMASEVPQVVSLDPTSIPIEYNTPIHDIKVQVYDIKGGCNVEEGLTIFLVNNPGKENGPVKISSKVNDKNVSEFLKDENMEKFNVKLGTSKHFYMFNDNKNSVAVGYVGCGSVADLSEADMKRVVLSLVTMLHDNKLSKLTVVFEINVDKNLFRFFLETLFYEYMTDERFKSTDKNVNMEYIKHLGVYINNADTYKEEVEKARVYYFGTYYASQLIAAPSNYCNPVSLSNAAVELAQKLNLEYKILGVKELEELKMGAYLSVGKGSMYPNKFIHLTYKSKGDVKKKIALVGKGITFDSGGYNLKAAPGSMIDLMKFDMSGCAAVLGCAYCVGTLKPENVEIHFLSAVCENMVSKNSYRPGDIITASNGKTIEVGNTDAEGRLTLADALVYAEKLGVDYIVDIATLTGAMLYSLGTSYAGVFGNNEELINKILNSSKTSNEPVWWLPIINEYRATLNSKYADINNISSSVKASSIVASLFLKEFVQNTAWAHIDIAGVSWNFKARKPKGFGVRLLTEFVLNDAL", "experiment": "P. falciparum M17LAP inhibitors, primary screen, biochemical, fluorogenic H-Leu-NHMec substrate, 1536-well (AID 1619)", "assay_type": "functional"}, "Cysteine protease ATG4B": {"biological_target": "T4, Cysteine protease ATG4B (Homo sapiens, UniProt Q9Y4P1)", "T4 sequence (Q9Y4P1 whole entry)": "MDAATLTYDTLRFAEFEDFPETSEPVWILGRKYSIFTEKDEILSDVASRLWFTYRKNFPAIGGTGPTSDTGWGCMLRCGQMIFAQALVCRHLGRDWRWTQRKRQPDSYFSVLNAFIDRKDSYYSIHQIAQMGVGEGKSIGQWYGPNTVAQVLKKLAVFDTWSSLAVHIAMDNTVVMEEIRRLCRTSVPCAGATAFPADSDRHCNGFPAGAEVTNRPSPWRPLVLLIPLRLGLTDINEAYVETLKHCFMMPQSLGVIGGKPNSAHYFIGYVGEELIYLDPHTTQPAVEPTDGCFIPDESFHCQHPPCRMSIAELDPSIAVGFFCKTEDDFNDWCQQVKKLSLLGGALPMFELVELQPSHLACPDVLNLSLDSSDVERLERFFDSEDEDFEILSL", "assay_type": "functional"}, "[4]": {"biological_target": "T5, RNA-binding protein pos-1 (Caenorhabditis elegans, UniProt G5EF15)", "T5 sequence (G5EF15 whole entry)": "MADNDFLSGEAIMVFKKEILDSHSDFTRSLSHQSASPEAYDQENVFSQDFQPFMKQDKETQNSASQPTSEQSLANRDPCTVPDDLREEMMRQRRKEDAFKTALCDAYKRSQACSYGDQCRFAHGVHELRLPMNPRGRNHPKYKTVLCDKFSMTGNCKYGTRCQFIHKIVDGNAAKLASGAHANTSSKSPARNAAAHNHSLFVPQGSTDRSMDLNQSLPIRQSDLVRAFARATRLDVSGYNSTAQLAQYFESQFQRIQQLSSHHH", "experiment": "inhibitors of POS-1/mex-3 RNA binding, dose response, biochemical, fluorescence polarization (AID 1964);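 note: purified POS-1 fused to maltose binding protein made in E. coli; potency of compounds blocking POS-1 binding to fluorescent RNA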"}, "SUMO-activating enzyme [5]": {"biological_target": "T1, SUMO-activating enzyme", "experiment": "SUMOylation inhibitor hit validation, confirmation, SUMOylation inhibitor project, biochemical, AlphaScreen (AID 2018)", "assay_type": "functional"}, "[6]": {"biological_target": "T6, Induced myeloid leukemia cell differentiation protein Mcl-1 (Homo sapiens, UniProt Q07820)", "T6 sequence (Q07820 whole entry)": "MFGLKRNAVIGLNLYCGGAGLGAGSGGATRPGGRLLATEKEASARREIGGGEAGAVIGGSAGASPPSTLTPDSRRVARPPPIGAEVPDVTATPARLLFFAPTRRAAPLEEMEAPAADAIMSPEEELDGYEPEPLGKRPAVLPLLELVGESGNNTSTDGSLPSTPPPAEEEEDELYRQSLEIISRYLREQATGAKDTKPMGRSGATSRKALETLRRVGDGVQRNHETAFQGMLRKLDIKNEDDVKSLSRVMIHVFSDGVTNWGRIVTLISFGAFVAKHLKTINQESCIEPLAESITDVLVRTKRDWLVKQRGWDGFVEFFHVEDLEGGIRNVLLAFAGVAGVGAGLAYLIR", "assay_type": "functional"}, "Phospholipase A2": {"biological_target": "Phospholipase A2 (Homo sapiens, UniProt P04054)", "sequence (P04054 whole entry)": "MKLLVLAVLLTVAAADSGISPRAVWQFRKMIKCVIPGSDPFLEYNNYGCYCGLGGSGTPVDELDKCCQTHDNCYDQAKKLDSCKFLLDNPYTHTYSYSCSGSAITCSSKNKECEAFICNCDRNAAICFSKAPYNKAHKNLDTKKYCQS", "assay_type": "functional"}, "Bcl-2-like protein 1": {"biological_target": "Bcl-2-like protein 1 (Homo sapiens, UniProt Q07817)", "sequence (Q07817 whole entry)": "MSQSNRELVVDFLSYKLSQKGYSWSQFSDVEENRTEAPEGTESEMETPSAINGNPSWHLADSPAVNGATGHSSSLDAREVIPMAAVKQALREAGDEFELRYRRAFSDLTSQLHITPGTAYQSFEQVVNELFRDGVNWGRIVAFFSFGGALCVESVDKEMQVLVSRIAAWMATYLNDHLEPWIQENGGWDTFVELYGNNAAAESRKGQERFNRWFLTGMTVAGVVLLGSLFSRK", "experiment": "BCL-XL inhibitors, dose response, selectivity assay for MCL1 inhibitor project, biochemical, fluorescence polarization, 1536-well (AID 2218)"}, "Large T antigen": {"biological_target": "Large T antigen (Simian virus 40, UniProt P03070)", "sequence (P03070 whole entry)": "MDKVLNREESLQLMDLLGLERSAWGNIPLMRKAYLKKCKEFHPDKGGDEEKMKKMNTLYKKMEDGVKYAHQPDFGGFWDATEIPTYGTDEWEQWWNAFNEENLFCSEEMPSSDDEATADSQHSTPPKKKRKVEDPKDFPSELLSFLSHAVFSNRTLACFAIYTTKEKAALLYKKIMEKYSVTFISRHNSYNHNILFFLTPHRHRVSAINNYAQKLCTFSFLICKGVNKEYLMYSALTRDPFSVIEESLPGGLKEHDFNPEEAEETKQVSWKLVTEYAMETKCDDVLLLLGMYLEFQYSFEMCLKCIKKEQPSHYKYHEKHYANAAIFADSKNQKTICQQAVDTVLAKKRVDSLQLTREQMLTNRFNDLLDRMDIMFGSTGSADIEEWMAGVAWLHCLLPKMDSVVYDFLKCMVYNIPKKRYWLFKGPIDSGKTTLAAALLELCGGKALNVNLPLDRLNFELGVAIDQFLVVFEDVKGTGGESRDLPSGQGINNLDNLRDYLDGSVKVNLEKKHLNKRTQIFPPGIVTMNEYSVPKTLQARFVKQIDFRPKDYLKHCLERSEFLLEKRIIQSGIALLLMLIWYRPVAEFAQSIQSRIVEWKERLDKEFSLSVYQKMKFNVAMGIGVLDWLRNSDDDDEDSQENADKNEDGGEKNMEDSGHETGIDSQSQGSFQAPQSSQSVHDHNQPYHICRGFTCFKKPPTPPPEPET", "assay_type": "functional, Betapolyomavirus macacae"}, "Nonstructural protein 1": {"biological_target": "Nonstructural protein 1 (Influenza A virus, UniProt Q194T2)", "sequence (Q194T2 whole entry)": "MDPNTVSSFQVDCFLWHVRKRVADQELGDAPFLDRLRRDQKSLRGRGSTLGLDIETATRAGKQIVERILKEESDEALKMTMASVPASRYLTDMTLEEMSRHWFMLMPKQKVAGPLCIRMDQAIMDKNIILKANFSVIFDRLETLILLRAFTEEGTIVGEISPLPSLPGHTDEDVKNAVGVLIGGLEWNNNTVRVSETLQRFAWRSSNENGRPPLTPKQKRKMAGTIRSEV", "assay_type": "functional, Influenza A virus (A/California/07/2009(H1N1))"}, "[7]": {"biological_target": "Protein disulfide-isomerase (Homo sapiens, UniProt P07237)", "sequence (P07237 whole entry)": "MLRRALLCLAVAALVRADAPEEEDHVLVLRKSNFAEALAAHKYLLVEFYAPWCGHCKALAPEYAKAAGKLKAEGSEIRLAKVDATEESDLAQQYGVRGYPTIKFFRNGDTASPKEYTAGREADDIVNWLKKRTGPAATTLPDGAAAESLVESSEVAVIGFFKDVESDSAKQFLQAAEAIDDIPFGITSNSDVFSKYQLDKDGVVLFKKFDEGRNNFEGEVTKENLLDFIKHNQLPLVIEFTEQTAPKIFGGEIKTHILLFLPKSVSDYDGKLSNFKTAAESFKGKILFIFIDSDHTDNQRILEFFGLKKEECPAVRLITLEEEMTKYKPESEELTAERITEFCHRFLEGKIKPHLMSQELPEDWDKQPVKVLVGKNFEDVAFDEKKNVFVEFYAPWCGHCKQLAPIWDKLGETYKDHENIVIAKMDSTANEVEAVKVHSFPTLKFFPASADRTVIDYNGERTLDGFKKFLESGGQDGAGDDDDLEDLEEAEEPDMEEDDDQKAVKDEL", "experiment": "PDI inhibitors, insulin aggregation turbidity, dose response, biochemical, absorbance, cherry-picked samples (AID 602350)", "assay_type": "functional"}, "[8]": {"biological_target": "T6, Induced myeloid leukemia cell differentiation protein Mcl-1", "experiment": "MCL1-BIM BH3 interaction inhibitors, dose response, biochemical, fluorescence polarization, BIM-BH3 peptide, 1536-well (AID 2217)"}, "[9]": {"biological_target": "T7, DNA repair and recombination protein RAD54-like (Homo sapiens, UniProt Q92698)", "T7 sequence (Q92698 whole entry)": "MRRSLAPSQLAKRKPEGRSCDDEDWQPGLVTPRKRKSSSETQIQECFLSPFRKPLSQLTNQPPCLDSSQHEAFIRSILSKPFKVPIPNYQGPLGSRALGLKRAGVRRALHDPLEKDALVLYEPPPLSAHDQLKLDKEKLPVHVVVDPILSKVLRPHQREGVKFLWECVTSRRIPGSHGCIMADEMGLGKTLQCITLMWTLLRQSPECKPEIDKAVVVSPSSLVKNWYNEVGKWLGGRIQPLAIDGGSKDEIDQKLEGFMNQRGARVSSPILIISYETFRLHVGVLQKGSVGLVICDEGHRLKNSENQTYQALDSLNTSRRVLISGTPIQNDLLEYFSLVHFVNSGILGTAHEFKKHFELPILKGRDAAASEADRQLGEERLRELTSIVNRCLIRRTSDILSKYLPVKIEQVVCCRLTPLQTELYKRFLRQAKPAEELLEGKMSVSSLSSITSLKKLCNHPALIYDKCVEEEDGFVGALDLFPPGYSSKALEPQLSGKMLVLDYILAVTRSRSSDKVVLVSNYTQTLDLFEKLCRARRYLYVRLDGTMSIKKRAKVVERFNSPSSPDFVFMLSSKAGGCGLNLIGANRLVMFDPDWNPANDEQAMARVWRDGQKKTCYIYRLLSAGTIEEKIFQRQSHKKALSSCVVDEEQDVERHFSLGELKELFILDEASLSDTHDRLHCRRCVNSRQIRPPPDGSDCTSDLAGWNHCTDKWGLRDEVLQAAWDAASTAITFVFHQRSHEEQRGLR", "experiment": "inhibitors of human RAD54 branch migration, confirmation, biochemical, fluorescence, cherry-picked samples, dose series (AID 651657)", "assay_type": "functional"}, "[10]": {"experiment": "Luminescent dose response cell-based high throughput screening assay for inhibitors of the Janus kinase 2 mutant JAK2V617F. [Related pubchem assays: 1446 (Primary screen.), 1521 (Confirmation assay.), 1486 (Counter screen.)]", "assay_type": "functional"}, "[11]": {"experiment": "inhibitors of intracellular T. cruzi replication, confirmation, NIH3T3 host cells, beta-gal luminescence (AID 2044);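 note: intracellular parasites grown in NIH/3T3 mouse fibroblasts as host cells; luminescent beta-galactosidase reporter signal from transgenic T. cruzi replicating inside host cells; inhibitors lower the luminescence signal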", "assay_type": "functional, cell-based"}, "[12]": {"experiment": "M. tuberculosis H37Rv growth inhibitors, H37Rv strain (AID 1626)", "assay_type": "functional"}, "[13]": {"biological_target": "T8, Oxysterols receptor LXR-beta (Homo sapiens, UniProt P55055)", "T8 sequence (P55055 whole entry)": "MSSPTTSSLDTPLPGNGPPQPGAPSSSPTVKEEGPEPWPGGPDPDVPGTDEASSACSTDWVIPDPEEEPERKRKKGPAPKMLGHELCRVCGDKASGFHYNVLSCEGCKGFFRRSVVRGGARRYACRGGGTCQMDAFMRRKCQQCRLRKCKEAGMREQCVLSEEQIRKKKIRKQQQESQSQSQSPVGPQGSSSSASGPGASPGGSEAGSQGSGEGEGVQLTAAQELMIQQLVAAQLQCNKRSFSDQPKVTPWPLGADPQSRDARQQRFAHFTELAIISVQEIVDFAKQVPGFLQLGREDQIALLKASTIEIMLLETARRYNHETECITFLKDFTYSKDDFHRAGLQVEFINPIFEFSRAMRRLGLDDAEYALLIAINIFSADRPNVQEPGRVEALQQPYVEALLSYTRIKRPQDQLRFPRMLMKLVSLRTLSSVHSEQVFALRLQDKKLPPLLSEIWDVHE", "assay_type": "functional, cell-based"}, "[14]": {"biological_target": "Aryl hydrocarbon receptor (Homo sapiens, UniProt P35869)", "experiment": "Luminescence-based cell-based high throughput dose response assay for activators of the Aryl Hydrocarbon Receptor (AHR). [Related pubchem assays: 2796 (Primary screen (AHR activators in singlicate)), 2845 (Confirmation screen (AHR activators in triplicate)), 434939 (Counterscreen (PXR activators in triplicate)), 2804 (Summary (AHR activators))]", "assay_type": "ADME"}},
  "note": "Activity calls are given as the source filed them.",
  "data": [
    {"smiles": "COc1cccc(NS(=O)(=O)c2ccc3c(c2)C2C=CCC2C(c2ccc(C(=O)O)cc2)N3)c1", "note": "(stereo unspecified)", "values": [
      {"measurement": "IC50", "setting": "SUMO-activating enzyme [1]", "result": "9.5 µM (active)"},
      {"measurement": "IC50", "setting": "Genome polyprotein", "result": "67 µM (active)"},
      {"measurement": "EC50", "setting": "[2]", "result": "12.5 µM (active)"},
      {"measurement": "IC50", "setting": "[3]", "result": "7.94 µM (active)"},
      {"measurement": "IC50", "setting": "Leucine aminopeptidase", "result": "15.8 µM (active)"},
      {"measurement": "IC50", "setting": "Cysteine protease ATG4B", "result": "10.7 µM (active)"},
      {"measurement": "EC50", "setting": "[4]", "result": "18 µM (inconclusive)"},
      {"measurement": "IC50", "setting": "SUMO-activating enzyme [5]", "result": "2.15 µM (active)"},
      {"measurement": "IC50", "setting": "[6]", "result": "2.32 µM (active)"},
      {"measurement": "IC50", "setting": "Phospholipase A2", "result": "10.6 µM (active)"},
      {"measurement": "IC50", "setting": "Bcl-2-like protein 1", "result": "64.9 µM (not active)"},
      {"measurement": "IC50", "setting": "Large T antigen", "result": "> 100 µM (active)"},
      {"measurement": "IC50", "setting": "Nonstructural protein 1", "result": "> 100 µM (active)"},
      {"measurement": "AC50", "setting": "[7]", "result": "15.8 µM (active)"},
      {"measurement": "IC50", "setting": "[8]", "result": "18.9 µM (not active)"}
    ]},
    {"smiles": "CC1CCN(CCCNC(=O)c2cc3c(Cl)nc4ccccc4c3s2)CC1", "values": [
      {"measurement": "AC50", "setting": "[9]", "result": "11.7 µM (active)"},
      {"measurement": "IC50", "setting": "[10]", "result": "0.96 µM (active)"},
      {"measurement": "EC50", "setting": "[11]", "result": "2.1 µM (active)"}
    ]},
    {"smiles": "O=C(Nc1nnc(-c2ccc3c(c2)OCCO3)o1)C1CCCCC1", "values": [
      {"measurement": "IC50", "setting": "[12]", "result": "> 100 µM (active)"}
    ]},
    {"smiles": "Cc1ccc(Nc2ncccc2C(N)=O)cc1", "values": [
      {"measurement": "EC50", "setting": "[13]", "result": "> 67.4 µM (inactive)"},
      {"measurement": "EC50", "setting": "[14]", "result": "1.36 µM (active)"}
    ]}
  ]
}
